Measurements reported in ChEMBL document CHEMBL3885861, “Open TG-GATES”.

Species: Rattus norvegicus
Assay: Open TG-GATES - Regimen: Daily Repeat
Assay type: toxicity, organism-based, Sprague-Dawley
Set-up: regimen Daily Repeat, gender Male, age 6 weeks
Conditions: in vivo, po, 0 mg/kg, route gavage, dose level Control; for APTT / Bas / Eos / Fbg / Hb / Ht / Lym / MCH / MCHC / MCV / Mono / Neu / PT / Plat / RBC / Ret / WBC: tissue Blood; for KIDNEY_L / KIDNEY_R / KIDNEY_TOTAL: tissue Kidney; for LIVER: tissue Liver; for A/G / ALP / ALT / AST / BUN / CRE / Ca / Cl / DBIL / GLC / IP / K / LDH / Na / PL / RALB / TBIL / TC / TG / TP / gamma-GTP: tissue Plasma

## COc1ccc(Cc2nccc3cc(OC)c(OC)cc23)cc1OC [PAPAVERINE]
72 h, time 3 day
  TERMINAL_BW: 240.5 g
  APTT: 21.1 s
  Bas: 0%
  Eos: 1%
  Fbg: 326.8 mg/dL
  Hb: 13.5 g/dL
  Ht: 40.7%
  Lym: 81.2%
  MCH: 21 pg
  MCHC: 33.4%
  MCV: 63 fL
  Mono: 2.2%
  Neu: 14.4%
  PT: 15.8 s
  Plat: 114.4 x10_4/uL
  RBC: 645.6 x10_4/ul
  Ret: 6.6%
  WBC: 105.4 x10_2/uL
  KIDNEY_L: 1 g
  KIDNEY_R: 1 g
  KIDNEY_TOTAL: 2 g
  LIVER: 11.4 g
  A/G: 1.2
  ALP: 1572.8 IU/L
  ALT: 41.4 IU/L
  AST: 70.2 IU/L
  BUN: 16 mg/dL
  CRE: 0.2 mg/dL
  Ca: 11 mg/dL
  Cl: 108.2 meq/L
  DBIL: 0 mg/dL
  GLC: 202.2 mg/dL
  IP: 7.2 mg/dL
  K: 4.2 meq/L
  LDH: 171.6 IU/L
  Na: 142.6 meq/L
  PL: 136.4 mg/dL
  RALB: 3 g/dL
  TBIL: 0.004 mg/dL
  TC: 72 mg/dL
  TG: 116 mg/dL
  TP: 5.5 g/dL
  gamma-GTP: 1.2 IU/L
[…], time 7 day
  TERMINAL_BW: 267.4 g
  APTT: 23.2 s
  Bas: 0%
  Eos: 0.8%
  Fbg: 299 mg/dL
  Hb: 13.7 g/dL
  Ht: 40.3%
  Lym: 80%
  MCH: 21 pg
  MCHC: 34.1%
  MCV: 61.6 fL
  Mono: 2.8%
  Neu: 14.8%
  PT: 15.7 s
  Plat: 111.7 x10_4/uL
  RBC: 654 x10_4/ul
  Ret: 5.6%
  WBC: 125.6 x10_2/uL
  KIDNEY_L: 1.1 g
  KIDNEY_R: 1.1 g
  KIDNEY_TOTAL: 2.2 g
  LIVER: 12.1 g
  A/G: 1.2
  ALP: 1358 IU/L
  ALT: 47 IU/L
  AST: 82.2 IU/L
  BUN: 19.4 mg/dL
  CRE: 0.2 mg/dL
  Ca: 10.3 mg/dL
  Cl: 107.2 meq/L
  DBIL: 0 mg/dL
  GLC: 203.2 mg/dL
  IP: 6.7 mg/dL
  K: 4.4 meq/L
  LDH: 248.2 IU/L
  Na: 140.4 meq/L
  PL: 148.8 mg/dL
  RALB: 3 g/dL
  TBIL: 0 mg/dL
  TC: 75 mg/dL
  TG: 101.6 mg/dL
  TP: 5.5 g/dL
  gamma-GTP: 2 IU/L
[…], time 14 day
  TERMINAL_BW: 326.9 g
  APTT: 22.8 s
  Bas: 0%
  Eos: 1%
  Fbg: 316.8 mg/dL
  Hb: 14.6 g/dL
  Ht: 42.7%
  Lym: 82%
  MCH: 20.7 pg
  MCHC: 34.1%
  MCV: 60.5 fL
  Mono: 2.2%
  Neu: 13.2%
  PT: 15.5 s
  Plat: 107 x10_4/uL
  RBC: 707 x10_4/ul
  Ret: 5%
  WBC: 120 x10_2/uL
  KIDNEY_L: 1.2 g
  KIDNEY_R: 1.3 g
  KIDNEY_TOTAL: 2.5 g
  LIVER: 14.2 g
  A/G: 1.1
  ALP: 1381.4 IU/L
  ALT: 42.2 IU/L
  AST: 67 IU/L
  BUN: 17.6 mg/dL
  CRE: 0.2 mg/dL
  Ca: 10.5 mg/dL
  Cl: 106.6 meq/L
  DBIL: 0 mg/dL
  GLC: 199.6 mg/dL
  IP: 6.7 mg/dL
  K: 4.4 meq/L
  LDH: 164.6 IU/L
  Na: 142.8 meq/L
  PL: 148.4 mg/dL
  RALB: 3 g/dL
  TBIL: 0.016 mg/dL
  TC: 78.4 mg/dL
  TG: 119.2 mg/dL
  TP: 5.7 g/dL
  gamma-GTP: 2.4 IU/L
[…], time 28 day
  TERMINAL_BW: 413.6 g
  APTT: 24.6 s
  Bas: 0%
  Eos: 1.6%
  Fbg: 315.8 mg/dL
  Hb: 14.5 g/dL
  Ht: 43.8%
  Lym: 77.8%
  MCH: 18.7 pg
  MCHC: 33%
  MCV: 56.6 fL
  Mono: 2%
  Neu: 17.8%
  PT: 16 s
  Plat: 101.3 x10_4/uL
  RBC: 775 x10_4/ul
  Ret: 3%
  WBC: 123.2 x10_2/uL
  KIDNEY_L: 1.4 g
  KIDNEY_R: 1.5 g
  KIDNEY_TOTAL: 3 g
  LIVER: 16.8 g
  A/G: 1.1
  ALP: 1231 IU/L
  ALT: 44.4 IU/L
  AST: 68.2 IU/L
  BUN: 20 mg/dL
  CRE: 0.2 mg/dL
  Ca: 10.2 mg/dL
  Cl: 105 meq/L
  DBIL: 0 mg/dL
  GLC: 211.4 mg/dL
  IP: 6.2 mg/dL
  K: 4.1 meq/L
  LDH: 160.4 IU/L
  Na: 141.4 meq/L
  PL: 147.4 mg/dL
  RALB: 3.1 g/dL
  TBIL: 0.008 mg/dL
  TC: 73.6 mg/dL
  TG: 132.6 mg/dL
  TP: 5.8 g/dL
  gamma-GTP: 3.2 IU/L
